The values below come from patent US9458192B1, “Covalent granzyme B inhibitors” (viDA Therapeutics Inc., priority 2014, dated 2016).

This experiment concerns the target GzmB (Homo sapiens, UniProt P10144). The experiment in a line: Inhibition of fibronectin cleavage by GzmB. Format: biochemical. To be noted: 20 nM granzyme B, Hilyte Fluor 488 labeled fibronectin, 30° C. As to the method:
Black, 96 well high-binding assay plates (Griener Bio-one) were treated overnight at 4° C. with 40 uL of 8 ug/mL Hilyte Fluor 488 labeled Fibronectin (Cytoskeleton, Inc). After fibronectin coating, plates were washed 3 times in buffer (20 mM Tris-HCl, pH 7.4, 20 mM NaCl) then once with granzyme B assay buffer (50 mM HEPES, pH 7.5, 0.1% CHAPS). After washing, 50 uL of granzyme B assay buffer was added to each fibronectin-coated well. In a separate non-binding 96 well assay plate 5 uL of 20× inhibitor serial dilution stocks were added to 45 uL of 2.22×GzmB mix to establish inhibition (enzyme/inhibitor mixes were all prepared in granzyme B assay buffer and were incubated first at room temperature for 20 minutes, then at 30° C. for another 10 minutes). After incubation, 50 uL of this 2× enzyme/inhibitor mix was added to the corresponding coated well to initiate fibronectin cleavage (20 nM final granzyme B concentration, 8-point inhibitor dilution series starting at 50 uM). The assay was conducted at 30° C. in the TECAN plate reader (TECAN INFINITE® M1000 Pro), which was programmed to monitor the kinetic fluorescence polarization signal (filter set Ex/Em 470 nm/527 nm) with readings taken every minute, for 1 hour. Proteolytic activity was evaluated as the rate of fluorescence enhancement in the parallel emission over the linear range of the reaction. % Inhibition values were calculated from assay controls and the resulting date is shown in Table 2.

GzmB, sequence (P10144 21-247): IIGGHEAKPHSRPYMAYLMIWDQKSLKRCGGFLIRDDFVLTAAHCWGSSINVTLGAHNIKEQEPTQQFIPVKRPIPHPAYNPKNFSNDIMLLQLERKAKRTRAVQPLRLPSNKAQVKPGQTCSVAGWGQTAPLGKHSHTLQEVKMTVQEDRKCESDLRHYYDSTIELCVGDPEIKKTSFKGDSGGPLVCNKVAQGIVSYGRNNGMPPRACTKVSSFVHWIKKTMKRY

Consider `CC[C@H](C)[C@H](NC(=O)CCC(=O)O)C(=O)NCC(=O)N1c2ccccc2C[C@H]1C(=O)NC(C=O)CC(=O)O` (stereo in doubt) [Compound C1, (S)-3-{[1-{2-[(2S,3S)-2-(3-carboxypropanamido)-3-methylpentanamido]acetyl}-2,3-dihydro-1H-indol-2-yl]formamido}-4-oxobutanoic acid], for which the inhibition at 0.62 µM (0.62 uM inhibitor, read-out: Percent Inhibition at Inhibitor Concentration 0.62 uM) turned out to be 60%. For the same molecule, where the note is “5.56 uM inhibitor, read-out: Percent Inhibition at Inhibitor Concentration 5.56 uM”, the inhibition at 5.56 µM came out at 87%. In addition, the inhibition at 50 µM (50 uM inhibitor, read-out: Percent Inhibition at Inhibitor Concentration 50 uM) turned out to be 95%.
